Key:
[1] = tested on: Human immunodeficiency virus 1; assay: Antiviral activity against multidrug resistant HIV1 IIIB containing reverse transcriptase K103N and Y181C mutation infected in human MT2 cells assessed as cytoprotection from infection by MTT colorimetric method; assay type: functional, organism-based
MT2 = assay: (§1) Cytotoxicity in human MT2 cells assessed as inhibition of cell growth; assay type: cell-based; conditions: mt2
[2] = tested on: Human immunodeficiency virus 1; assay: Antiviral activity against multidrug resistant HIV1 IIIB containing reverse transcriptase Y181C mutation infected in human MT2 cells assessed as cytoprotection from infection by MTT colorimetric method; assay type: functional, organism-based
[3] = tested on: Human immunodeficiency virus 1; assay: microbe, parasite or virus in culture; conditions: Human immunodeficiency virus 1, IIIB, MT2
Description: Antiviral activity against multidrug resistant HIV1 IIIB containing reverse transcriptase infected in human MT2 cells assessed as cytoprotection from infection by MTT colorimetric method

[4] = Octanol-water partition coefficient, log P of the compound; assay type: physicochemical
[5] = as §1; assay type: cell-based; conditions: MT2 cells
[6] = Human immunodeficiency virus 1, IIIB, MT2, read-out: EC50

Which EC50 ([1]; mt2) does the source give for `N#Cc1ccc(Nc2ncc(Cc3c(F)cccc3F)o2)cc1` here?
Its EC50 is “Not Active”.

What does the source list for `N#Cc1ccc(Nc2ncc(Cc3c(F)cc(F)cc3F)o2)cc1Cl`?
EC50 ([1]; mt2): Not Active; CC50 (MT2): 7000 nM; EC50 [2, 6]: 910 nM; EC50 [3]: 9.1 nM

For `Cc1cc(F)c(Cc2cnc(Nc3ccc(C#N)c(Cl)c3)o2)c(F)c1`, which EC50 [1, 6] is on record?
Its EC50 is 7200 nM.

What about the CC50 (MT2) of the same compound?
Its CC50 is 31000 nM.

And the EC50 [2, 6]?
Its EC50 is 210 nM.

What about the EC50 [3] of the same compound?
The EC50 was 11 nM.

Which results are given for `CCc1cc(F)c(Cc2cnc(Nc3ccc(C#N)c(Cl)c3)o2)c(F)c1`?
EC50 [1, 6]: 210 nM; CC50 (MT2): 10000 nM; EC50 [2, 6]: 6.9 nM; EC50 [3]: 1.3 nM

Which results are given for `CC(C)c1cc(F)c(Cc2cnc(Nc3ccc(C#N)c(Cl)c3)o2)c(F)c1`?
EC50 [1, 6]: 120 nM; CC50 (MT2): 5000 nM; EC50 [2, 6]: 7.2 nM; logP [4]: 3.7; EC50 [3]: 5.2 nM

What does the source list for `N#Cc1ccc(Nc2ncc(Cc3c(F)cc(C4CC4)cc3F)o2)cc1Cl`?
EC50 [1, 6]: 10700 nM; CC50 (MT2): 65000 nM; EC50 [2, 6]: 1500 nM; logP [4]: 3.3; EC50 [3]: 24 nM

With `N#Cc1ccc(Nc2ncc(Cc3c(F)cc(CC4CC4)cc3F)o2)cc1Cl` as the compound, how does the EC50 [1, 6] read?
Its EC50 is 15000 nM.

What about the CC50 (MT2) of the same compound?
Its CC50 is 29000 nM.

What about the EC50 [2, 6] of the same compound?
The EC50 was 1200 nM.

And the EC50 [3]?
The EC50 was 68 nM.

Which results are given for `CCOc1cc(F)c(Cc2cnc(Nc3ccc(C#N)c(Cl)c3)o2)c(F)c1`?
EC50 [1, 6]: 750 nM; CC50 (MT2): 15000 nM; EC50 [2, 6]: 48 nM; EC50 [3]: 28 nM

With `COCc1cc(F)c(Cc2cnc(Nc3ccc(C#N)c(Cl)c3)o2)c(F)c1` as the compound, how does the EC50 [1, 6] read?
Its EC50 is 6300 nM.

And the CC50 (MT2)?
Its CC50 is 15000 nM.

And the EC50 [2, 6]?
Its EC50 is 690 nM.

And the EC50 [3]?
Its EC50 is 3.6 nM.

What does the source list for `CCc1cc(F)c(Cc2cnc(Nc3ccc(Oc4cccnc4)c(Cl)c3)o2)c(F)c1`?
EC50 [1, 6]: 800 nM; CC50 (MT2): 5000 nM; EC50 [2, 6]: 60 nM; EC50 [3]: 5 nM

With `CC(C)(C)c1cc(Cl)c(Cc2cnc(Nc3ccc(C#N)c(Cl)c3)o2)c(Cl)c1` as the compound, how does the EC50 ([1]; mt2) read?
Its EC50 is “Not Active”.

And the CC50 (MT2)?
Its CC50 is 6000 nM.

And the EC50 ([2]; mt2)?
The EC50 was “Not Active”.

What about the EC50 [3] of the same compound?
The EC50 was 1300 nM.

With `CCC(C)c1cc(F)c(Cc2cnc(Nc3ccc(C#N)c(Cl)c3)o2)c(F)c1` (racemic) as the compound, how does the EC50 [1, 6] read?
Its EC50 is 2800 nM.

And the CC50 (MT2)?
Its CC50 is 40000 nM.

And the EC50 [2, 6]?
The EC50 was 150 nM.

And the EC50 [3]?
The EC50 was 120 nM.

With `Cc1ccnc2c1NC(=O)c1cccnc1N2C1CC1` [NEVIRAPINE] as the compound, how does the EC50 ([1]; mt2) read?
Its EC50 is “Not Active”.

And the CC50 [5]?
Its CC50 is greater than 100000 nM.

And the EC50 ([2]; mt2)?
Its EC50 is “Not Active”.
